Literature values, collected in US20100254942A1, “HEPATITIS C ANTIVIRAL COMPOSITIONS AND METHODS” (BIOTRON LIMITED, priority 2007, published 2010).

Target: T1, GBV-B p13 ion channel (Hepatitis GB virus B, UniProt Q69422)
T1 construct: a synthetic peptide corresponding to the two C-terminal transmembrane helices of p13 (which share the greatest homology to p7); host or cells: chemically synthesised peptide
Conditions: synthetic peptide of two C-terminal transmembrane helices of p13; Premkumar et al., 2006; cited from earlier work

T1 sequence (Q69422 670-732): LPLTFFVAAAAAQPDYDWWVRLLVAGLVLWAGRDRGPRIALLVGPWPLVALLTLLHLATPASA

Row | SMILES | effect on p13 ion channel
1 | NC(N)=NC(=O)c1nc(Cl)c(N2CCCCCC2)nc1N [HMA] | does not inhibit
2 | NC12CC3CC(CC(C3)C1)C2 [amantadine] | blocked
